Test results as given in US12570675B2, “Boronic acid compounds” (LG CHEM, LTD., priority 2020, dated 2026).

Key:
[1] = target: Proteasome chymotrypsin-like activity (S26 protein from RPMI8226 cells) (Homo sapiens, UniProt P28074); type: biochemical; details: S26 protein from RPMI8226 cell extract 2 ug/well, substrate 20 uM, 37° C., 90 minutes; read-out: Proteasome chymotrypsin-like activity inhibition IC50
In short: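 S26 proteasome fraction from homogenized RPMI8226 myeloma cells in 20 mM Tris-HCl pH 8.0 (2 ug extract/well) incubated 90 min at 37 °C with compound serially diluted from 10 uM (0.5% DMSO).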

[2] = target: Proteasome caspase-like activity (S26 protein from RPMI8226 cells) (Homo sapiens (Human), UniProt P28072); assay: Proteasome caspase-like activity inhibition (Z-Leu-Leu-Glu-AMC fluorogenic substrate, RPMI8226 cell extract); type: biochemical; details: S26 protein from RPMI8226 cell extract 2 ug/well, substrate 20 uM, 37° C., 90 minutes
Method: The abilities to inhibit the proteasome activity of the compounds described in the Examples of the present invention and boronic acid drugs were evaluated as follows.
RPMI8226 cells, which is a multiple myeloma cell line, were cultured and then separated by a centrifuge, and washed twice with phosphate buffered saline (PBS). 20 mM of a tris-HCl (pH 8.0) buffer solution was added to the washed cells, and the cells were disrupted by a homogenizer and centrifuged to obtain S26 protein from the supernatant. Suc-Leu-Leu-Val-Tyr-AMC, for a fluorogenic substrate for the chymotrypsin-like activity of the proteasome, and Z-Leu-Leu-Glu-AMC, for a fluorogenic substrate for the caspase-like activity, were purchased from Calbiochem, EMD Millipore and used. Into each well of a 96-well plate (opaque, black round bottom), 20 ul of the S26 protein (final RPMI8226 cell extract concentration: 2 ug/well), 10 ul of S26 proteasome inhibitor serially diluted from 10 uM (final DMSO concentration: 0.5%), and 20 ul of the fluorogenic substrate for the proteasome chymotrypsin-like or caspase-like activity (final concentration: 20 uM) were added and mixed and allowed to react in a 37° C. incubator for 90 minutes. The fluorescence of the fluorogenic substrate was measured by FlexStation II Fluorometer (Molecular Devices). The fluorescence inhibited by the compound diluted at each concentration was measured as the relative percentage value for the amount obtained from the treatment only with the S26 protein and the fluorogenic substrate. IC50 (inhibitory concentration 50) was expressed in terms of a concentration that inhibits 50% of the maximum fluorescence induced by the fluorogenic substrate.

Sequence of Proteasome chymotrypsin-like activity (S26 protein from RPMI8226 cells) (P28074 60-263 limits assumed): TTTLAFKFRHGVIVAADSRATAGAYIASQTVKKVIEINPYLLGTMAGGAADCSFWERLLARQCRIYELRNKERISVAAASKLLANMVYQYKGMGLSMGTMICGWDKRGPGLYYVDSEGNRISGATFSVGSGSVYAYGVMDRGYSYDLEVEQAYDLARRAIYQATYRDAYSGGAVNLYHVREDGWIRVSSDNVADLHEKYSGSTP
Sequence of Proteasome caspase-like activity (S26 protein from RPMI8226 cells) (P28072 whole entry): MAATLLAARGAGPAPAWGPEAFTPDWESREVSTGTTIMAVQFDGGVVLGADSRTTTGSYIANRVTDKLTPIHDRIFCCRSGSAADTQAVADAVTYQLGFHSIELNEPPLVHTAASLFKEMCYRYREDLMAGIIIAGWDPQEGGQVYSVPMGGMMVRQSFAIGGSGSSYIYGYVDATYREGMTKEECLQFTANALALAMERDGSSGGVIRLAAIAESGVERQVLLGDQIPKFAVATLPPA

SMILES	IC50 [1]	IC50 [2]
CC(C)C[C@H](NC(=O)C1CC(COCc2ccccc2)=NO1)B(O)O (some centres unmarked) [Example 252]	< 100 nM	> 500 nM
CC(C)C[C@H](NC(=O)C1(Cc2ccccc2)CC(CNC(=O)c2cccc3cccnc23)=NO1)B(O)O (stereo partly drawn) [Example 113, ((1R)-1-(5-benzyl-3-((quinolin-8-carboxamido)methyl)-4,5-dihydroisoxazol-5-carboxamido)-3-methylbutyl)boronic acid]	< 10 nM	> 500 nM
CC(C)C[C@H](NC(=O)C1(Cc2ccccc2)CC(CNC(=O)c2cc(-c3ccccc3)nn2C(C)C)=NO1)B(O)O (stereo partly drawn) [Example 207, ((1R)-1-(5-benzyl-3-((1-isopropyl-3-phenyl-1H-pyrazol-5-carboxamido)methyl)-4,5-dihydroisoxazol-5-carboxamido)-3-methylbutyl)boronic acid]	< 10 nM	> 250 nM
CC(C)C[C@H](NC(=O)C1CC(c2ccc3ccccc3c2)=NO1)B(O)O (stereo partly drawn) [Example 17, ((1R)-3-methyl-1-(3-(naphthalen-2-yl)-4,5-dihydroisoxazol-5-carboxamido)butyl)boronic acid]	< 500 nM	
CC(C)C[C@H](NC(=O)C1(Cc2ccccc2)CC(CNC(=O)c2cccc(-c3ccccc3)c2)=NO1)B(O)O (stereo partly drawn) [Example 95, ((1R)-1-(3-([1,1′-biphenyl]-3-carboxamidomethyl)-5-benzyl-4,5-dihydroisoxazol-5-carboxamido)-3-methylbutyl)boronic acid]	< 10 nM	
CC(C)C[C@H](NC(=O)C1CC(c2cc(Cl)ccc2Cl)=NO1)B(O)O (stereo partly drawn) [Example 3, ((1R)-1-(3-(2,5-dichlorophenyl)-4,5-dihydroisoxazol-5-carboxamido)-3-methylbutyl)boronic acid]	< 250 nM	
COc1cccc(CC2(C(=O)N[C@@H](CC(C)C)B(O)O)CC(CNC(=O)c3c(Cl)c(C)nn3C(C)C)=NO2)c1 (stereo partly drawn) [Example 233, ((1R)-1-(3-((4-chloro-1-isopropyl-3-methyl-1H-pyrazol-5-carboxamido)methyl)-5-(3-methoxybenzyl)-4,5-dihydroisoxazol-5-carboxamido)-3-methylbutyl)boronic acid]	< 10 nM	
CC(C)C[C@H](NC(=O)C1(Cc2ccccc2)CC(C(C)(C)NC(=O)c2cccn3ccnc23)=NO1)B(O)O (stereo partly drawn) [Example 158, ((1R)-1-(5-benzyl-3-(2-(imidazo[1,2-a]pyridin-8-carboxamido)propan-2-yl)-4,5-dihydroisoxazol-5-carboxamido)-3-methylbutyl)boronic acid]	< 100 nM	
CCC1(C(=O)N[C@@H](CC(C)C)B(O)O)CC(c2cnccn2)=NO1 (stereo partly drawn) [Example 6, ((1R)-1-(5-ethyl-3-(pyrazin-2-yl)-4,5-dihydroisoxazol-5-carboxamido)-3-methylbutyl)boronic acid]	> 1000 nM	
CC(C)C[C@H](NC(=O)C1CC(c2ccc(-c3cccc(F)c3)cn2)=NO1)B(O)O (stereo partly drawn) [Example 28, ((1R)-1-(3-(5-(3-fluorophenyl)pyridin-2-yl)-4,5-dihydroisoxazol-5-carboxamido)-3-methylbutyl)boronic acid]	< 250 nM	
CC(C)C[C@H](NC(=O)[C@]1(Cc2ccccc2)CC(c2ccccc2)=NO1)B(O)O [Example 7, ((R)-1-((S)-5-benzyl-3-phenyl-4,5-dihydroisoxazol-5-carboxamido)-3-methylbutyl)boronic acid]	< 500 nM	

Continued, values first:

IC50 [1]	IC50 [2]	SMILES
< 10 nM	> 500 nM	CC(C)C[C@H](NC(=O)C1CC(CNC(=O)c2cc(Cl)ccc2Cl)=NO1)B(O)O (stereo partly drawn) [Example 68, ((1R)-1-(3-((2,5-dichlorobenzamido)methyl)-4,5-dihydroisoxazol-5-carboxamido)-3-methylbutyl)boronic acid]
< 10 nM	> 2500 nM	CC(C)C[C@H](NC(=O)C1(Cc2ccccc2)CC(CNC(=O)c2cccc3ncccc23)=NO1)B(O)O (stereo partly drawn) [Example 116, ((1R)-1-(5-benzyl-3-((quinolin-5-carboxamido)methyl)-4,5-dihydroisoxazol-5-carboxamido)-3-methylbutyl)boronic acid]
< 10 nM	> 500 nM	Cc1nc(C)c(C(=O)NCC2=NOC(COc3ccccc3)(C(=O)N[C@@H](CC(C)C)B(O)O)C2)s1 (stereo partly drawn) [Example 141, ((1R)-1-(3-((2,4-dimethylthiazol-5-carboxamido)methyl)-5-(phenoxymethyl)-4,5-dihydroisoxazol-5-carboxamido)-3-methylbutyl)boronic acid]
< 25 nM	> 500 nM	CC(C)C[C@H](NC(=O)C1CC([C@H](CC(C)C)NC(=O)c2cc(Cl)ccc2Cl)=NO1)B(O)O (stereo partly drawn) [Example 74, ((1R)-1-(3-((S)-1-(2,5-dichlorobenzamido)-3-methylbutyl)-4,5-dihydroisoxazol-5-carboxamido)-3-methylbutyl)boronic acid]
< 50 nM	> 2500 nM	CC(C)C[C@H](NC(=O)C1(C)CC(CNC(=O)c2cc(Cl)ccc2Cl)=NO1)B(O)O (stereo partly drawn) [Example 86, ((1R)-1-(3-((2,5-dichlorobenzamido)methyl)-5-methyl-4,5-dihydroisoxazol-5-carboxamido)-3-methylbutyl)boronic acid]
	7 nM	CC(C)C[C@H](NC(=O)CNC(=O)c1cc(Cl)ccc1Cl)B(O)O [ixazomib]
< 10 nM		CC(C)C[C@H](NC(=O)C1(Cc2ccccc2)CC(CNC(=O)c2ccnn2C2CCOCC2)=NO1)B(O)O (stereo partly drawn) [Example 197, ((1R)-1-(5-benzyl-3-((1-(tetrahydro-2H-pyran-4-yl)-1H-pyrazol-5-carboxamido)methyl)-4,5-dihydroisoxazol-5-carboxamido)-3-methylbutyl)boronic acid]
< 10 nM		Cc1cccc(CC2(C(=O)N[C@@H](CC(C)C)B(O)O)CC(CNC(=O)c3cccn4ccnc34)=NO2)c1 (stereo partly drawn) [Example 238, ((1R)-1-(3-((imidazo[1,2-a]pyridin-8-carboxamido)methyl)-5-(3-methylbenzyl)-4,5-dihydroisoxazol-5-carboxamido)-3-methylbutyl)boronic acid]
< 10 nM		CC(C)C[C@H](NC(=O)C1(Cc2ccccc2)CC(CNC(=O)c2cccc(-c3ccccn3)c2)=NO1)B(O)O (stereo partly drawn) [Example 98, ((1R)-1-(5-benzyl-3-((3-(pyridin-2-yl)benzamido)methyl)-4,5-dihydroisoxazol-5-carboxamido)-3-methylbutyl)boronic acid]
< 10 nM		COc1cccc(CC2(C(=O)N[C@@H](CC(C)C)B(O)O)CC(CNC(=O)c3cc(C)nn3C3CCCC3)=NO2)c1 (stereo partly drawn) [Example 240, ((1R)-1-(3-((1-cyclopentyl-3-methyl-1H-pyrazol-5-carboxamido)methyl)-5-(3-methoxybenzyl)-4,5-dihydroisoxazol-5-carboxamido)-3-methylbutyl)boronic acid]
< 10 nM		CC(C)C[C@H](NC(=O)C1(Cn2cccn2)CC(CNC(=O)c2cccn3ccnc23)=NO1)B(O)O (stereo partly drawn) [Example 149, ((1R)-1-(5-((1H-pyrazol-1-yl)methyl)-3-((imidazo[1,2-a]pyridin-8-carboxamido)methyl)-4,5-dihydroisoxazol-5-carboxamido)-3-methylbutyl)boronic acid]
< 25 nM		CC(C)C[C@H](NC(=O)C1(Cc2ccccc2)CC(CNC(=O)C2(c3ccccc3)CC2)=NO1)B(O)O (stereo partly drawn) [Example 118, ((1R)-1-(5-benzyl-3-((1-phenylcyclopropan-1-carboxamido)methyl)-4,5-dihydroisoxazol-5-carboxamido)-3-methylbutyl)boronic acid]
< 10 nM		COc1cccc(CC2(C(=O)N[C@@H](CC(C)C)B(O)O)CC(CNC(=O)c3cc(-c4ccccn4)nn3C(C)C)=NO2)c1 (stereo partly drawn) [Example 241, ((1R)-1-(3-((1-isopropyl-3-(pyridin-2-yl)-1H-pyrazol-5-carboxamido)methyl)-5-(3-methoxybenzyl)-4,5-dihydroisoxazol-5-carboxamido)-3-methylbutyl)boronic acid]
< 10 nM		CC(C)C[C@H](NC(=O)C1(Cc2cccc(F)c2F)CC(CNC(=O)c2nccc3ccccc23)=NO1)B(O)O (stereo partly drawn) [Example 203, ((1R)-1-(5-(2,3-difluorobenzyl)-3-((isoquinolin-1-carboxamido)methyl)-4,5-dihydroisoxazol-5-carboxamido)-3-methylbutyl)boronic acid]
< 25 nM		COc1cccc(-c2cccc(COCC3=NOC(Cc4ccccc4)(C(=O)N[C@@H](CC(C)C)B(O)O)C3)c2)c1 (stereo partly drawn) [Example 57, ((1R)-1-(5-benzyl-3-(((3′-methoxy-[1,1′-biphenyl]-3-yl)methoxy)methyl)-4,5-dihydroisoxazol-5-carboxamido)-3-methylbutyl)boronic acid]
< 10 nM		Cc1cc(C(=O)NCC2=NOC(Cc3ccccc3)(C(=O)N[C@@H](CC(C)C)B(O)O)C2)n(C2CCOCC2)n1 (stereo partly drawn) [Example 218, ((1R)-1-(5-benzyl-3-((3-methyl-1-(tetrahydro-2H-pyran-4-yl)-1H-pyrazol-5-carboxamido)methyl)-4,5-dihydroisoxazol-5-carboxamido)-3-methylbutyl)boronic acid]
